According to patent publication US20250353891A1 (MEDIMMUNE LIMITED, priority 2022, published 2025):
Starred links: 1 amine or outer side, 2 acyl side, 3 side chain; linkers in the order of their positions; H or OH if unused. Non-standard residues stand in square brackets, D forms with d. Residues, ends and D or L forms follow the SMILES beside them. Groups on a side chain read outwards from the residue. *: point of attachment. γGlu = O=C(O)[C@H](CCC(=O)[*:2])N[*:1]; Stearoyl = CCCCCCCCCCCCCCCCCC(=O)*; Palmitoyl = CCCCCCCCCCCCCCCC(=O)*; αMeF = C[C@](N)(Cc1ccccc1)C(=O)O; Myristoyl = CCCCCCCCCCCCCC(=O)*; αMeS = C[C@](N)(CO)C(=O)O; PEG2 = NCCOCCOCCC(=O)O; Aib = CC(C)(N)C(=O)O

What was measured:
[1] = target: human glucagon receptor (hGCGR) (Homo sapiens, UniProt P47871); test: cAMP production (HTRF) in CHO cells expressing hGCGR; assay type: cell-based; set-up: expressed in transfected cells; details: Table 6, peptides modified at position 17; cAMP in CHO hGCGR cells; geometric mean; read-out: hGluc-R EC50
Method in brief: (§1)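 Read-out: HTRF cAMP (anti-cAMP cryptate donor, cAMP-d2 acceptor in conjugate/lysis buffer), converted to % Delta F and fitted by 4-parameter logistic for EC50. Cell densities were 1×10^5 cells/mL (hGLP-1R) or 2×10^5 cells/mL (hGCGR). Stimulation lasted 30 min at room temperature.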

[2] = target: human GLP-1 receptor (hGLP-1R) (Homo sapiens, UniProt P43220); test: cAMP production (HTRF) in CHO cells expressing hGLP-1R; assay type: cell-based; set-up: expressed in transfected cells; details: for EC50: Table 6, peptides modified at position 17, cAMP in CHO hGLP-1R cells, geometric mean, read-out: hGLP-1R EC50; for % Relative Potency Ratio: Table 6, % GLP-1R activity relative to GLP-1 / % GlucR activity relative to glucagon
Method in brief: as §1

Chain of human GLP-1 receptor (hGLP-1R) (P43220 24-463): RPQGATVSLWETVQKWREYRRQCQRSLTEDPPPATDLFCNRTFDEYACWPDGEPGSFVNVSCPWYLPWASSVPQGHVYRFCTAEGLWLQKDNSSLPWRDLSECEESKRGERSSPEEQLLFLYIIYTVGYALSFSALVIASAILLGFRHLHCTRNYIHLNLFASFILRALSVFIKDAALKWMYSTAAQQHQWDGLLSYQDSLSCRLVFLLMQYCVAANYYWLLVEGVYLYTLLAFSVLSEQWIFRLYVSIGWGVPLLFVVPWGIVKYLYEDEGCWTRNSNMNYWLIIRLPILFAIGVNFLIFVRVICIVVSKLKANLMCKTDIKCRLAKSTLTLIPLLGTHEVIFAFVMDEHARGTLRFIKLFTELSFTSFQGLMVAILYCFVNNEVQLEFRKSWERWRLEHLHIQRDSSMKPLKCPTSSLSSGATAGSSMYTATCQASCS
Chain of human glucagon receptor (hGCGR) (P47871 26-477): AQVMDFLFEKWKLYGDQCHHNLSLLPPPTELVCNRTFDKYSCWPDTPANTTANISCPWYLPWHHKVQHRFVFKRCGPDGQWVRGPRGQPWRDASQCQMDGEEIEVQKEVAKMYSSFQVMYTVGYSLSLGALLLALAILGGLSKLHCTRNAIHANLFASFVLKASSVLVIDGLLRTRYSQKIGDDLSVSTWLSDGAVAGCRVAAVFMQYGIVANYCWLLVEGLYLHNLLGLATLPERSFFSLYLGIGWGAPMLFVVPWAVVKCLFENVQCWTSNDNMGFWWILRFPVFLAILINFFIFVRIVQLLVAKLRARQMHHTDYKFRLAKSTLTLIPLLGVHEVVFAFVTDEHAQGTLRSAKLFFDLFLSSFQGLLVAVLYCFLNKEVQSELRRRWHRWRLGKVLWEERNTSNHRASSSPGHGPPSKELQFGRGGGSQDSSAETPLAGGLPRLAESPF

EC50 [1] [pM]	EC50 [2] [pM]	% Relative Potency Ratio [2]	Structure (SMILES)
1.2	1.5	1.6	CCCCCCCCCCCCCCCC(=O)N[C@@H](CCC(=O)NCCOCCOCCC(=O)NCCOCCOCCC(=O)NCCCC[C@H](NC(=O)[C@H](CO)NC(=O)[C@H](CC(=O)O)NC(=O)[C@H](CC(C)C)NC(=O)[C@@H](NC(=O)[C@H](CCCCN)NC(=O)[C@H](CO)NC(=O)[C@@H](NC(=O)[C@H](CC(=O)O)NC(=O)[C@H](CO)NC(=O)[C@@H](NC(=O)[C@](C)(Cc1ccccc1)NC(=O)[C@H](CO)NC(=O)CNC(=O)[C@H](CCC(N)=O)NC(=O)[C@H](CO)NC(=O)[C@@H](N)Cc1c[nH]cn1)[C@@H](C)O)C(C)C)[C@@H](C)CC)C(=O)N[C@@H](C)C(=O)N[C@@H](C)C(=O)N[C@@H](CCC(N)=O)C(=O)N[C@@H](CC(=O)O)C(=O)N[C@@](C)(Cc1ccccc1)C(=O)N[C@H](C(=O)N[C@@H](CCC(N)=O)C(=O)NC(C)(C)C(=O)N[C@H](C(=O)N[C@H](C(=O)N[C@@H](CC(N)=O)C(=O)N[C@H](C(N)=O)[C@@H](C)O)[C@@H](C)CC)[C@@H](C)CC)C(C)C)C(=O)O [Peptide 121] (H-HSQGS[αMeF]TSDVSKILDSK([PEG2-PEG2-γGlu-Palmitoyl])AAQD[αMeF]VQ[Aib]IINT-NH2; N-terminus assumed)
12.9		51.4	CCCCCCCCCCCCCCCC(=O)N[C@@H](CCC(=O)N[C@@H](CCC(=O)NCCOCCOCCC(=O)NCCOCCOCCC(=O)NCCCC[C@H](NC(=O)[C@H](CO)NC(=O)[C@H](CC(=O)O)NC(=O)[C@H](CC(C)C)NC(=O)[C@@H](NC(=O)[C@H](CCCCN)NC(=O)[C@H](CO)NC(=O)[C@@H](NC(=O)[C@H](CC(=O)O)NC(=O)[C@H](CO)NC(=O)[C@@H](NC(=O)[C@](C)(Cc1ccccc1)NC(=O)[C@H](CO)NC(=O)CNC(=O)[C@H](CCC(N)=O)NC(=O)C(C)(C)NC(=O)[C@@H](N)Cc1c[nH]cn1)[C@@H](C)O)C(C)C)[C@@H](C)CC)C(=O)N[C@@H](C)C(=O)N[C@@H](C)C(=O)N[C@@H](CCC(N)=O)C(=O)N[C@@H](CC(=O)O)C(=O)N[C@@](C)(Cc1ccccc1)C(=O)N[C@H](C(=O)N[C@@H](CCC(N)=O)C(=O)N[C@H](C(=O)N[C@H](C(=O)N[C@@H](C)C(=O)N[C@@H](CC(N)=O)C(N)=O)[C@@H](C)CC)[C@@H](C)CC)C(C)C)C(=O)O)C(=O)O [Peptide 123] (H-H[Aib]QGS[αMeF]TSDVSKILDSK([PEG2-PEG2-γGlu-γGlu-Palmitoyl])AAQD[αMeF]VQIIAN-NH2; N-terminus assumed)
9.79	1.27	15.2	CCCCCCCCCCCCCCCCCC(=O)N[C@@H](CCC(=O)N[C@@H](CCC(=O)NCCOCCOCCC(=O)NCCOCCOCCC(=O)NCCCC[C@H](NC(=O)[C@H](CO)NC(=O)[C@H](CC(=O)O)NC(=O)[C@H](CC(C)C)NC(=O)[C@@H](NC(=O)[C@H](CCCCN)NC(=O)[C@H](CO)NC(=O)[C@@H](NC(=O)[C@H](CC(=O)O)NC(=O)[C@H](CO)NC(=O)[C@@H](NC(=O)[C@](C)(Cc1ccccc1)NC(=O)[C@H](CO)NC(=O)CNC(=O)[C@H](CCC(N)=O)NC(=O)C(C)(C)NC(=O)[C@@H](N)Cc1c[nH]cn1)[C@@H](C)O)C(C)C)[C@@H](C)CC)C(=O)N[C@@H](C)C(=O)N[C@@H](C)C(=O)N[C@@H](CCC(N)=O)C(=O)N[C@@H](CC(=O)O)C(=O)N[C@@](C)(Cc1ccccc1)C(=O)N[C@H](C(=O)N[C@@H](CCC(N)=O)C(=O)NC(C)(C)C(=O)N[C@H](C(=O)N[C@H](C(=O)N[C@@H](CC(N)=O)C(=O)N[C@H](C(N)=O)[C@@H](C)O)[C@@H](C)CC)[C@@H](C)CC)C(C)C)C(=O)O)C(=O)O [Peptide 124] (H-H[Aib]QGS[αMeF]TSDVSKILDSK([PEG2-PEG2-γGlu-γGlu-Stearoyl])AAQD[αMeF]VQ[Aib]IINT-NH2; N-terminus assumed)
6.68		23.0	CCCCCCCCCCCCCCCC(=O)N[C@@H](CCC(=O)N[C@@H](CCC(=O)NCCOCCOCCC(=O)NCCOCCOCCC(=O)NCCCC[C@H](NC(=O)[C@H](CO)NC(=O)[C@H](CC(=O)O)NC(=O)[C@H](CC(C)C)NC(=O)[C@@H](NC(=O)[C@H](CCCCN)NC(=O)[C@H](CO)NC(=O)[C@@H](NC(=O)[C@H](CC(=O)O)NC(=O)[C@H](CO)NC(=O)[C@@H](NC(=O)[C@](C)(Cc1ccccc1)NC(=O)[C@H](CO)NC(=O)CNC(=O)[C@H](CCC(N)=O)NC(=O)C(C)(C)NC(=O)[C@@H](N)Cc1c[nH]cn1)[C@@H](C)O)C(C)C)[C@@H](C)CC)C(=O)N[C@@H](C)C(=O)N[C@@H](C)C(=O)N[C@@H](CCC(N)=O)C(=O)N[C@@H](CC(=O)O)C(=O)N[C@@](C)(Cc1ccccc1)C(=O)N[C@H](C(=O)N[C@@H](CCC(N)=O)C(=O)NC(C)(C)C(=O)N[C@H](C(=O)N[C@H](C(=O)N[C@@H](CC(N)=O)C(=O)N[C@H](C(N)=O)[C@@H](C)O)[C@@H](C)CC)[C@@H](C)CC)C(C)C)C(=O)O)C(=O)O [Peptide 125] (H-H[Aib]QGS[αMeF]TSDVSKILDSK([PEG2-PEG2-γGlu-γGlu-Palmitoyl])AAQD[αMeF]VQ[Aib]IINT-NH2; N-terminus assumed)
12.6		25.1	CCCCCCCCCCCCCCCCCC(=O)N[C@@H](CCC(=O)NCCOCCOCCC(=O)NCCOCCOCCC(=O)NCCCC[C@H](NC(=O)[C@H](CO)NC(=O)[C@H](CC(=O)O)NC(=O)[C@H](CC(C)C)NC(=O)[C@@H](NC(=O)[C@H](CCCCN)NC(=O)[C@H](CO)NC(=O)[C@@H](NC(=O)[C@H](CC(=O)O)NC(=O)[C@H](CO)NC(=O)[C@@H](NC(=O)[C@](C)(Cc1ccccc1)NC(=O)[C@H](CO)NC(=O)CNC(=O)[C@H](CCC(N)=O)NC(=O)C(C)(C)NC(=O)[C@@H](N)Cc1c[nH]cn1)[C@@H](C)O)C(C)C)[C@@H](C)CC)C(=O)N[C@@H](C)C(=O)N[C@@H](C)C(=O)N[C@@H](CCC(N)=O)C(=O)N[C@@H](CC(=O)O)C(=O)N[C@@](C)(Cc1ccccc1)C(=O)N[C@H](C(=O)N[C@@H](CCC(N)=O)C(=O)NC(C)(C)C(=O)N[C@H](C(=O)N[C@H](C(=O)N[C@@H](CC(N)=O)C(=O)N[C@H](C(N)=O)[C@@H](C)O)[C@@H](C)CC)[C@@H](C)CC)C(C)C)C(=O)O [Peptide 127] (H-H[Aib]QGS[αMeF]TSDVSKILDSK([PEG2-PEG2-γGlu-Stearoyl])AAQD[αMeF]VQ[Aib]IINT-NH2; N-terminus assumed)
4.69		11.8	CCCCCCCCCCCCCCCC(=O)N[C@@H](CCC(=O)NCCOCCOCCC(=O)NCCOCCOCCC(=O)NCCCC[C@H](NC(=O)[C@H](CO)NC(=O)[C@H](CC(=O)O)NC(=O)[C@H](CC(C)C)NC(=O)[C@@H](NC(=O)[C@H](CCCCN)NC(=O)[C@H](CO)NC(=O)[C@@H](NC(=O)[C@H](CC(=O)O)NC(=O)[C@H](CO)NC(=O)[C@@H](NC(=O)[C@](C)(Cc1ccccc1)NC(=O)[C@H](CO)NC(=O)CNC(=O)[C@H](CCC(N)=O)NC(=O)C(C)(C)NC(=O)[C@@H](N)Cc1c[nH]cn1)[C@@H](C)O)C(C)C)[C@@H](C)CC)C(=O)N[C@@H](C)C(=O)N[C@@H](C)C(=O)N[C@@H](CCC(N)=O)C(=O)N[C@@H](CC(=O)O)C(=O)N[C@@](C)(Cc1ccccc1)C(=O)N[C@H](C(=O)N[C@@H](CCC(N)=O)C(=O)NC(C)(C)C(=O)N[C@H](C(=O)N[C@H](C(=O)N[C@@H](CC(N)=O)C(=O)N[C@H](C(N)=O)[C@@H](C)O)[C@@H](C)CC)[C@@H](C)CC)C(C)C)C(=O)O [Peptide 128] (H-H[Aib]QGS[αMeF]TSDVSKILDSK([PEG2-PEG2-γGlu-Palmitoyl])AAQD[αMeF]VQ[Aib]IINT-NH2; N-terminus assumed)
4.1		17.6	CCCCCCCCCCCCCC(=O)N[C@@H](CCC(=O)NCCOCCOCCC(=O)NCCOCCOCCC(=O)NCCCC[C@H](NC(=O)[C@H](CO)NC(=O)[C@H](CC(=O)O)NC(=O)[C@H](CC(C)C)NC(=O)[C@@H](NC(=O)[C@H](CCCCN)NC(=O)[C@H](CO)NC(=O)[C@@H](NC(=O)[C@H](CC(=O)O)NC(=O)[C@H](CO)NC(=O)[C@@H](NC(=O)[C@](C)(Cc1ccccc1)NC(=O)[C@H](CO)NC(=O)CNC(=O)[C@H](CCC(N)=O)NC(=O)C(C)(C)NC(=O)[C@@H](N)Cc1c[nH]cn1)[C@@H](C)O)C(C)C)[C@@H](C)CC)C(=O)N[C@@H](C)C(=O)N[C@@H](C)C(=O)N[C@@H](CCC(N)=O)C(=O)N[C@@H](CC(=O)O)C(=O)N[C@@](C)(Cc1ccccc1)C(=O)N[C@H](C(=O)N[C@@H](CCC(N)=O)C(=O)NC(C)(C)C(=O)N[C@H](C(=O)N[C@H](C(=O)N[C@@H](CC(N)=O)C(=O)N[C@H](C(N)=O)[C@@H](C)O)[C@@H](C)CC)[C@@H](C)CC)C(C)C)C(=O)O [Peptide 129] (H-H[Aib]QGS[αMeF]TSDVSKILDSK([PEG2-PEG2-γGlu-Myristoyl])AAQD[αMeF]VQ[Aib]IINT-NH2)
32.9	1.09	59.9	CCCCCCCCCCCCCCCCCC(=O)N[C@@H](CCC(=O)N[C@@H](CCC(=O)NCCOCCOCCC(=O)NCCOCCOCCC(=O)NCCCC[C@H](NC(=O)[C@H](CO)NC(=O)[C@H](CC(=O)O)NC(=O)[C@H](CC(C)C)NC(=O)[C@@H](NC(=O)[C@H](CCCCN)NC(=O)[C@H](CO)NC(=O)[C@@H](NC(=O)[C@H](CC(=O)O)NC(=O)[C@H](CO)NC(=O)[C@@H](NC(=O)[C@](C)(Cc1ccccc1)NC(=O)[C@H](CO)NC(=O)CNC(=O)[C@H](CCC(N)=O)NC(=O)[C@](C)(CO)NC(=O)[C@@H](N)Cc1c[nH]cn1)[C@@H](C)O)C(C)C)[C@@H](C)CC)C(=O)N[C@@H](C)C(=O)N[C@@H](C)C(=O)N[C@@H](CCC(N)=O)C(=O)N[C@@H](CC(=O)O)C(=O)N[C@@](C)(Cc1ccccc1)C(=O)N[C@H](C(=O)N[C@@H](CCC(N)=O)C(=O)NC(C)(C)C(=O)N[C@H](C(=O)N[C@H](C(=O)N[C@@H](CC(N)=O)C(=O)N[C@H](C(N)=O)[C@@H](C)O)[C@@H](C)CC)[C@@H](C)CC)C(C)C)C(=O)O)C(=O)O [Peptide 130] (H-H[αMeS]QGS[αMeF]TSDVSKILDSK([PEG2-PEG2-γGlu-γGlu-Stearoyl])AAQD[αMeF]VQ[Aib]IINT-NH2; N-terminus assumed)
